Laboratory results as given in the NIST ThermoML archive (doi:10.1016/j.jct.2014.02.018).
Several values for one entry are separate records, joined by “and”; a condition that tells them apart may be missing. Equal entries are not always repeated.

Settings: Crystal, Calculated from knudsen effusion weight loss

Cn1cc(F)c(=O)n(C)c1=O [2,4(1H,3H)-pyrimidinedione, 5-fluoro-1,3-dimethyl-]
Settings | vapor or sublimation pressure
317.18 K | 8.39e-05 kPa and 8.8e-05 kPa and 8.46e-05 kPa
319.21 K | 0.0001113 kPa and 0.0001195 kPa and 0.0001105 kPa
321.12 K | 0.0001414 kPa and 0.0001372 kPa and 0.000135 kPa
323.18 K | 0.0001684 kPa and 0.0001645 kPa and 0.0001712 kPa
325.22 K | 0.00021 kPa and 0.0002051 kPa and 0.0002013 kPa
327.13 K | 0.0002547 kPa and 0.0002583 kPa and 0.0002608 kPa
329.18 K | 0.0003128 kPa and 0.0003165 kPa and 0.000333 kPa
331.22 K | 0.0004074 kPa and 0.0004027 kPa and 0.0004159 kPa
333.12 K | 0.0005058 kPa and 0.0004953 kPa and 0.0005012 kPa
335.17 K | 0.0006116 kPa and 0.0006003 kPa and 0.0006128 kPa
337.24 K | 0.0007507 kPa and 0.0007652 kPa and 0.0007436 kPa
339.14 K | 0.0009104 kPa and 0.0009266 kPa and 0.0009283 kPa

O=c1[nH]cc(F)c(=O)[nH]1 [5-fluoro-2,4(1H,3H)-pyrimidinedione]
Settings | vapor or sublimation pressure
411.14 K | 0.000178 kPa and 0.000166 kPa and 0.000165 kPa
413.1 K | 0.000207 kPa and 0.000197 kPa and 0.000198 kPa
415.14 K | 0.000239 kPa and 0.000235 kPa and 0.000246 kPa
417.14 K | 0.000261 kPa and 0.000283 kPa and 0.000278 kPa
419.14 K | 0.000347 kPa and 0.000332 kPa and 0.000351 kPa
421.18 K | 0.000418 kPa and 0.000401 kPa and 0.000406 kPa
423.16 K | 0.000477 kPa and 0.000472 kPa and 0.000474 kPa
425.11 K | 0.000588 kPa and 0.000561 kPa and 0.00058 kPa
427.16 K | 0.000669 kPa and 0.000668 kPa
429.15 K | 0.000836 kPa and 0.000794 kPa and 0.000829 kPa
431.11 K | 0.001027 kPa and 0.001013 kPa and 0.000961 kPa
433.17 K | 0.001185 kPa and 0.001148 kPa and 0.001135 kPa
